Measurements taken from patent US4910194A, “Thienotriazolodiazepine compounds and pharmaceutical uses thereof” (Yoshitomi Pharmaceutical Industries, Ltd., priority 1988, dated 1990).
In brackets after ≈: the same amount, converted by molar mass.

What was measured:
[1] = test system: PAF-induced platelet aggregation; assay: Inhibitory effect on platelet aggregation in rabbits (in vitro test); type: cell-based; settings: Oryctolagus cuniculus, rabbit PRP, PAF 1.8×10^-7 M, 37° C., read-out: Inhibition of PAF-induced platelet aggregation, IC50
Protocol: Blood samples to which was added 0.1 volume of 3.8% sodium citrate were collected from rabbits. Platelet rich plasma (PRP) was prepared by centrifuging the blood sample at 200×g for 10 minutes, and platelet poor plasma (PPP) was prepared by centrifuging the remaining blood sample at 1000×g for 10 minutes.
Aggregation ability was measured with a turbidimetric device (6-channel NKK Hematracer 1, model PAT-6A) according to the method of G. V. R. Born described in J. Physiology, vol. 168, p. 178 (1963). The aggregometer was adjusted in sensitivity to give light transmission values of 0 and 100% for PRP and PPP, respectively. With stirring at 1000 rpm, 0.3 μl of test compound solution or vehicle was added to 0.3 ml of PRP. After the mixture was kept at 37° C. for 2 minutes, to the mixture was added 3 μl PAF (Serdary Research Lab.) at the final concentration of 1.8×10^-7 M and the light transmission was recorded for 5 minutes.
In all experiments, PAF was dissolved in ethanol at the concentration of 100 μg/ml, and, when used, diluted with 0.9% saline solution.
The inhibition percentage of test compounds on platelet aggregation were calculated from the following formula by measuring the maximal light transmission in the presence and absence of the test compounds. [formula]
IC50 (μg/ml, concentration of 50% inhibition) was graphically determined.

PAF = settings: literature; cited from earlier work
PAF-induced lethal shock = assay: Effect on PAF-induced lethal shock in mice; type: in vivo; settings: Mus musculus; male ICR mice, oral 1 hour before 80 μg/kg PAF i.v., survival over 24 hours; read-out: ED50 (p.o.), PAF-induced lethal shock
Protocol: The experiment was carried out according to the method of Young et al. described in Prostaglandins, Vol. 30, p. 545 (1985). Groups of 9 to 15 male ICR mice (Charles River) weighing 25-30 g were used. 80 μg/kg of PAF (Serdary Research Lab.) solution was intravenously administered in a lateral tail vein 1 hour after the oral administration of test compound (0.1 ml/10 g). […] The ED50 (mg/kg, p.o.) of the compound of Example 2 was 0.01 mg/kg.

[2] = test system: PAF-induced platelet aggregation; assay: Inhibitory effect on platelet aggregation in rabbits (ex vivo test); settings: Oryctolagus cuniculus, po, rabbit, 1 mg/kg orally, 24 hours, read-out: percentage of inhibition of platelet aggregation at 24 hours after oral administration
Protocol: Test compound (1 mg/kg) was orally administered to rabbit instead of adding it to PRP as in vitro test of Experiment 1, and then the citrated blood samples (9 volumes of blood+1 volume of 3.8% sodium citrate) were collected with the passage of time. Then, the blood samples were employed to determine the inhibitory effect on platelet aggregation according to Experiment 1. The percentage of inhibition at 24 hours after the oral administration of the compound of Example 2 was 100%.

Structure (SMILES)	IC50 [1]	further results
Cc1nnc2n1-c1sc(CCc3ccc(CC(C)(C)O)cc3)cc1C(c1ccccc1Cl)=NC2C (stereo not drawn) [Example 3, 4-(2-chlorophenyl)-2-[2-(4-(2-hydroxy-2-methylpropyl)phenyl)ethyl]-6,9-dimethyl-6H-thieno[3,2-f][1,2,4]triazolo[4,3-a][1,4]diazepine]	0.01 to 0.03 µg/mL (≈ 0.0198 to 0.0594 µM)	
Cc1nnc2n1-c1sc(CCc3ccc(CC(C)CO)cc3)cc1C(c1ccccc1Cl)=NC2C (stereo not drawn) [Example 4, 4-(2-chlorophenyl)-2-[2-(4-(3-hydroxy-2-methylpropyl)phenyl)ethyl]-6,9-dimethyl-6H-thieno[3,2-f][1,2,4]triazolo[4,3-a][1,4]diazepine]	0.03 to 0.1 µg/mL (≈ 0.0594 to 0.198 µM)	
Cc1nnc2n1-c1sc(CCc3ccc(C(O)C(C)(C)O)cc3)cc1C(c1ccccc1Cl)=NC2C (stereo not drawn) [Example 6, 4-(2-chlorophenyl)-2-[2-(4-(1,2-dihydroxy-2-methylpropyl)phenyl)ethyl]-6,9-dimethyl-6H-thieno[3,2-f][1,2,4]triazolo[4,3-a][1,4]diazepine]	0.03 to 0.1 µg/mL (≈ 0.0576 to 0.192 µM)	
Cc1nnc2n1-c1sc(CCC(=O)N3CCOCC3)cc1C(c1ccccc1Cl)=NC2 [4-(2-chlorophenyl)-9-methyl-6H-thieno-[3,2-f][1,2,4]triazolo[4,3-a][1,4]diazepine-2-propionic acid morpholide]		antagonistic activity on PAF (PAF): exhibit antagonistic activity on PAF
CCc1cc2c(s1)-n1c(C)nnc1CN=C2c1ccccc1Cl [Etizolam, 6-(o-chlorophenyl)-8-ethyl-1-methyl-4H-s-triazolo[3,4-c]thieno[2,3-e][1,4]diazepine]		antagonistic activity on PAF (PAF): exhibits antagonistic activity on PAF
Cc1nnc2n1-c1sc(CCc3ccc(C(=O)C(C)(C)O)cc3)cc1C(c1ccccc1Cl)=NC2C (stereo not drawn) [Example 5, 4-(2-chlorophenyl)-2-[2-(4-(2-hydroxy-2-methylpropionyl)phenyl)ethyl]-6,9-dimethyl-6H-thieno[3,2-f][1,2,4]triazolo[4,3-a][1,4]diazepine]	0.01 to 0.03 µg/mL (≈ 0.0193 to 0.0578 µM)	
Cc1nnc2n1-c1sc(CCc3ccc(C(O)C(C)C)cc3)cc1C(c1ccccc1Cl)=NC2C (stereo not drawn) [Example 2, 4-(2-chlorophenyl)-2-[2-(4-(1-hydroxy-2-methylpropyl)phenyl)ethyl]-6,9-dimethyl-6H-thieno-[3,2-f][1,2,4]triazolo[4,3-a][1,4]diazepine]	0.01 to 0.03 µg/mL (≈ 0.0198 to 0.0594 µM)	ED50 (PAF-induced lethal shock): 0.01 mg/kg; inhibition at 1 mg/kg [2]: 100%
